IC50 and inhibition data for 30 compounds are collected here from ChEMBL document CHEMBL5053519, “Discovery and structure - activity relationship exploration of pyrazolo[1,5-a]pyrimidine derivatives as potent FLT3-ITD inhibitors” (Bioorg Med Chem, 2021).

Active and inactive are the calls of the source. No cut-off for these calls is given here.

Test [1] addresses Receptor-type tyrosine-protein kinase FLT3 (Homo sapiens, UniProt P36888, ITD).
Description: Inhibition of FLT3-ITD mutant (unknown origin) using Poly (Glu,Tyr) 4:1 as substrate incubated for 1 hr in presence of ATP by ELISA
Test [2] addresses T1, Receptor-type tyrosine-protein kinase FLT3 (Homo sapiens, UniProt P36888).
T1 sequence (P36888 whole entry): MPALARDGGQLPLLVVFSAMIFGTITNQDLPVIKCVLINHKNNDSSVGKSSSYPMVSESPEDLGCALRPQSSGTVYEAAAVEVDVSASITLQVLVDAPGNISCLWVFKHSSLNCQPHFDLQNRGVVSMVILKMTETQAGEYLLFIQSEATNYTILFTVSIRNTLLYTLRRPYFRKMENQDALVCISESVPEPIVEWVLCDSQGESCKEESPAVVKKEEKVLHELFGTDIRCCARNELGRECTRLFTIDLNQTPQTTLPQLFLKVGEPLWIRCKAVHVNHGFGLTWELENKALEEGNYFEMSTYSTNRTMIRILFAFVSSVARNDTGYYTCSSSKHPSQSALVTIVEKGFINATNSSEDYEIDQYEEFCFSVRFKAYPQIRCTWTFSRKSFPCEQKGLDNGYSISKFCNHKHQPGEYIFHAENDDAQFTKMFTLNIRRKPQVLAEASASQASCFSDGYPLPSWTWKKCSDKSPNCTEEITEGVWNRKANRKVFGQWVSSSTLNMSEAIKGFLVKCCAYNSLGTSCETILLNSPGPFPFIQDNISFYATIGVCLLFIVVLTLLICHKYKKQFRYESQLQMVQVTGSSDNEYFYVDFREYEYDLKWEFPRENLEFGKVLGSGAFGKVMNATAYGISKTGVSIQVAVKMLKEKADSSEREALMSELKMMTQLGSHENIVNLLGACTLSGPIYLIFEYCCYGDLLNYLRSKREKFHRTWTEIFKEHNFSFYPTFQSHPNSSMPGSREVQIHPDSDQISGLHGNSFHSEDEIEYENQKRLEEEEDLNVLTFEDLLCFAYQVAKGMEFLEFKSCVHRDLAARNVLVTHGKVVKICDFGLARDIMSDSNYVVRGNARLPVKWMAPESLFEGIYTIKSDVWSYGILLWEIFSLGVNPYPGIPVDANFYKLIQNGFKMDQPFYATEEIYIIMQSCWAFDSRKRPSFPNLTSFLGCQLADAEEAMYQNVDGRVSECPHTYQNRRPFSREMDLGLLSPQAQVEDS
Description: Inhibition of FLT3 (unknown origin) using Poly (Glu,Tyr) 4:1 as substrate incubated for 1 hr in presence of ATP by ELISA

A further test relates to MOLM-13. Nature of the test: cells. The conditions noted are these: Homo sapiens, MOLM-13, 72 h.
The subject of a further test is MV4-11. Kind of test: cells. The conditions noted are these: Homo sapiens, MV4-11, 72 h.
For test [3], the target named is Receptor-type tyrosine-protein kinase FLT3 (Homo sapiens) (UniProt P36888). The settings on record: MV4-11, dose 1.1 nM, time 2.0 hrs.
Test [4] shares this target. Kind of test: Inhibition of FLT3 in human MV4-11 cells assessed as suppression of Erk phosphorylation incubated for 2 hrs by Western blot analysis. The settings on record: dose 0.1-10 nM. The class given is cell-based. (In general: In western blotting, separated proteins are transferred to a membrane and probed.)
For test [5] the target is unchanged. Nature of the test: Inhibition of FLT3 phosphorylation in human MV4-11 cells at 0.1 to 10 nM incubated for 2 hrs by Western blot analysis. The conditions noted are these: dose 0.1-10 nM. The class given is cell-based.
For test [6], the target named is Receptor-type tyrosine-protein kinase FLT3 (Homo sapiens, UniProt P36888, D835Y).
Test [7] addresses Receptor-type tyrosine-protein kinase FLT3 (Homo sapiens) (UniProt P36888). The conditions noted are these: MV4-11, dose 1.1 nM, time 2.0 hrs. The source holds these as a separate data set.

A word on the IC50: it is the concentration that inhibits the measured activity by half. By inhibition is commonly meant the percentage by which the read-out fell short of the control.

Description for MOLM-13: Antiproliferative activity against human MOLM-13 cells assessed as reduction in cell viability incubated for 72 hrs by CCK8 assay
Description for MV4-11: Antiproliferative activity against human MV4-11 cells assessed as reduction in cell viability incubated for 72 hrs by CCK8 assay

For the compound `O=C(Nc1ccc(N2CCOCC2)cc1F)c1cnn2ccc(N[C@@H]3CCCNC3)nc12`, the half-maximal inhibitory concentration (IC50) in test [1] was found to be 110 nM; in test [2], 25.1 nM; in the test with MOLM-13, 16.5 nM; in the test with MV4-11, 9.8 nM.
Regarding `COc1cc(N2CCNCC2)ccc1NC(=O)c1cnn2ccc(N3CCC[C@@H](N)C3)nc12`, the IC50 in test [1] worked out at 1.9 nM; in [2] it was 3.8 nM; in the test on MOLM-13, 249 nM; with MV4-11, 46 nM.
As to `COc1cc(N(C)CCN(C)C)ccc1NC(=O)c1cnn2ccc(N[C@@H]3CCCNC3)nc12`, the IC50 in [1] is 37.5 nM; in test [2], 3.5 nM; with MOLM-13, 23.5 nM; with MV4-11, 10 nM.
In the case of `COc1cc(N2CCCCC2)ccc1NC(=O)c1cnn2ccc(N[C@@H]3CCCNC3)nc12`, the IC50 in [1] came to 69.5 nM; in test [2], 8 nM; in the test with MOLM-13, 13 nM; in the test on MV4-11, 9.8 nM.
Take `O=C(Nc1ccc(N2CCOCC2)cc1C(F)(F)F)c1cnn2ccc(N[C@H]3CCCNC3)nc12`: the IC50 in test [1] is 296 nM; in test [2] it was more than 1000 nM; in the test on MOLM-13, 111 nM; with MV4-11 it was 12.9 nM.
The like results for `Cc1cc(N2CCOCC2)ccc1NC(=O)c1cnn2ccc(N[C@@H]3CCCNC3)nc12` were, in that order, 1.1 nM, 1.4 nM, 13.8 nM and 7.5 nM.
The like results for `CSc1cc(N2CCOCC2)ccc1NC(=O)c1cnn2ccc(N[C@@H]3CCCNC3)nc12` were, in that order, 1.6 nM, 1.2 nM, 2.5 nM and less than 0.32 nM.
Regarding `O=C(Nc1ccc(N2CCOCC2)cc1C(F)(F)F)c1cnn2ccc(N[C@@H]3CCCCNC3)nc12`, the IC50 in test [1] is 0.5 nM; in test [2], 0.8 nM; in the test on MOLM-13, 1.4 nM; with MV4-11, less than 0.32 nM.
The like results for `COc1cc(N2CCN(C)CC2)ccc1NC(=O)c1cnn2ccc(N3CCC[C@@H](N)C3)nc12` were, in that order, 3.7 nM, 12 nM, 17 nM and 7 nM.
As to `O=C(Nc1ccc(N2CCOCC2)cc1C(F)(F)F)c1cnn2ccc(NC3CCCCC3)nc12`, the IC50 (in [1]; in test [2]; in the test on MOLM-13; in the test on MV4-11) was more than 1000 nM throughout.
As to `O=C(Nc1ccc(N2CCOCC2)cc1C(F)(F)F)c1cnn2ccc(NC3CCNCC3)nc12`, the half-inhibitory concentration (IC50) stood at 6.7 nM in test [1], 16.5 nM in test [2], 155 nM in the test with MOLM-13 and 28.5 nM in the test on MV4-11.
Regarding `O=C(Nc1ccc(N2CCOCC2)cc1C(F)(F)F)c1cnn2ccc(N[C@@H]3CCCNC3)nc12`, the IC50 in test [1] stood at 1 nM; in test [2] it was 0.4 nM; in the test on MOLM-13 it was 1 nM; in test [6], 0.3 nM; in the test on MV4-11, 1.3 nM. Moreover, the inhibition was 100% in test [3], “Dose-dependent effect” in test [4] and 100% in [7]. Besides, the inhibition result in test [5] was “Active”.
Consider `O=C(Nc1ccc(N2CCOCC2)cc1)c1cnn2ccc(N[C@@H]3CCCNC3)nc12`, for which the IC50 was 21.6 nM in test [1], 37.7 nM in test [2], 37.1 nM in the test on MOLM-13 and 23.5 nM in the test on MV4-11.
Consider `COc1cc(N2CCOCC2)ccc1NC(=O)c1cnn2ccc(N[C@@H]3CCCNC3)nc12`, for which the IC50 in test [1] stood at 3.1 nM; in test [2], 2.7 nM; in the test with MOLM-13 it was 10.3 nM; in the test with MV4-11 it was 1 nM.
The like results for `COc1cc(N2CCOCC2)ccc1NC(=O)c1cnn2ccc(N3CCC[C@@H](N)C3)nc12` were, in that order, 1.3 nM, 3.5 nM, 28.3 nM and 11.2 nM.
With `CCOc1cc(N2CCOCC2)ccc1NC(=O)c1cnn2ccc(N[C@@H]3CCCNC3)nc12`, the IC50 in [1] came out at 4.1 nM; in test [2], 2.7 nM; with MOLM-13 it was 11.4 nM; with MV4-11 it was 9.8 nM.
As for `O=C(Nc1ccc(N2CCOCC2)cc1C(F)(F)F)c1cnn2ccc(NC3CNC3)nc12`, the 50% inhibitory concentration (IC50) in [1] worked out at 30.7 nM; in test [2], 39.9 nM; in the test on MOLM-13 it was 157 nM; with MV4-11, 29.5 nM.
The like results for `N#Cc1cc(N2CCOCC2)ccc1NC(=O)c1cnn2ccc(N[C@@H]3CCCNC3)nc12` were, in that order, 2 nM, 2.6 nM, 3.7 nM and 0.6 nM.
The like results for `O=C(Nc1ccc(N2CCOCC2)cc1C(F)(F)F)c1cnn2ccc(N[C@H]3CN4CCC3CC4)nc12` were, in that order, 11.7 nM, 7 nM, 26.3 nM and 5.13 nM.
The like results for `COc1cc(N2CCN(S(C)(=O)=O)CC2)ccc1NC(=O)c1cnn2ccc(N3CCC[C@@H](N)C3)nc12` were, in that order, 18.7 nM, 3.9 nM, 43.7 nM and 26.5 nM.
Regarding `COc1cc(N2CCC(N3CCOCC3)CC2)ccc1NC(=O)c1cnn2ccc(N[C@@H]3CCCNC3)nc12`, the IC50 in test [1] worked out at 18 nM; in test [2], 2.9 nM; with MOLM-13, 10.3 nM; in the test on MV4-11 it was 6.3 nM.
For the compound `COc1cc(N2CCCC2)ccc1NC(=O)c1cnn2ccc(N[C@@H]3CCCNC3)nc12`, the IC50 was 83.1 nM in test [1], 7.1 nM in test [2], 19.5 nM in the test with MOLM-13 and 11.7 nM with MV4-11.
The like results for `COc1ccccc1NC(=O)c1cnn2ccc(N[C@@H]3CCCNC3)nc12` were, in that order, 144 nM, 38.2 nM, 19.4 nM and 5.3 nM.
For the compound `O=C(Nc1ccc(N2CCOCC2)cc1Br)c1cnn2ccc(N[C@@H]3CCCNC3)nc12`, the IC50 in test [1] is 0.8 nM; in test [2], 0.4 nM; in the test on MOLM-13, 0.6 nM; in test [6] it was 0.4 nM; in the test on MV4-11 it was less than 0.32 nM.
On to `CN(c1ccn2ncc(C(=O)Nc3ccc(N4CCOCC4)cc3C(F)(F)F)c2n1)[C@@H]1CCCNC1`, for which the IC50 in [1] is more than 1000 nM; in [2] it was 160 nM; in the test with MOLM-13 it was more than 1000 nM; in the test on MV4-11, more than 1000 nM.
Consider `CN1CCC[C@@H](Nc2ccn3ncc(C(=O)Nc4ccc(N5CCOCC5)cc4C(F)(F)F)c3n2)C1`, for which the IC50 in [1] came to 181 nM; in test [2], 264 nM; in the test with MOLM-13 it was 262 nM; in the test on MV4-11 it was 23.4 nM.
On to `NC(=O)c1cc(N2CCOCC2)ccc1NC(=O)c1cnn2ccc(N[C@@H]3CCCNC3)nc12`, for which the IC50 was 7.2 nM in test [1], 8.7 nM in test [2], more than 1000 nM with MOLM-13 and 172 nM in the test with MV4-11.
The like results for `O=C(Nc1ccc(N2CCOCC2)cc1C(F)(F)F)c1cnn2ccc(N[C@@H]3CCNC3)nc12` were, in that order, 96.7 nM, 5.5 nM, 16.3 nM and 8 nM.
Turning to `COc1cc(N2CCN(C(C)=O)CC2)ccc1NC(=O)c1cnn2ccc(N[C@@H]3CCCNC3)nc12`, the IC50 in test [1] was determined as 1.2 nM; in test [2], 1.4 nM; with MOLM-13 it was 17.4 nM; in the test on MV4-11 it was 7.66 nM.
The like results for `CC(C)Oc1cc(N2CCOCC2)ccc1NC(=O)c1cnn2ccc(N[C@@H]3CCCNC3)nc12` were, in that order, 197 nM, 32.9 nM, 35.9 nM and 34.8 nM.
